Patent US5527801A, “Ameliorant for blood lipid metabolism” (Dainippon Pharmaceutical Co., Ltd., priority 1991, dated 1996)
Where two headings read alike, the source gives them in different places.

Assays:
[1] = test system: total cholesterol in plasma; assay: Total cholesterol in plasma of rabbits fed high fat feed; format: in vivo, male white Japanese rabbits; conditions: for Total cholesterol concentration in plasma: ± standard error; for Total cholesterol concentration, effect in words: vs High fat feed + Vehicle, up to 9 weeks
Experimental: (§1) In this experiment, male white Japanese rabbits (5 to 7 rabbits/group) were used. The high fat feed was prepared by adding 1% cholesterol and 6% coconut oil to the solid feed (Oriental Yeast Co., Ltd., RC-4).
(§2) Separately, in the normal feed group, each rabbit was given normal solid feed (RC-4) (100 g/day) and a vehicle (tragacanth solution) orally.

[2] = test system: free cholesterol in plasma; assay: Free cholesterol in plasma of rabbits fed high fat feed; format: in vivo, male white Japanese rabbits; conditions: for Free cholesterol concentration in plasma: ± standard error; for Free cholesterol concentration, effect in words: vs High fat feed + Vehicle, up to 9 weeks
Experimental: as §1, §2

α1-receptor = conditions: Jpn. J. Pharmacol., 52 (suppl. 1), 212 (1990); cited from earlier work
[3] = JP Kokoku 58341/1991 (U.S. Pat. No. 4,749,703); cited from earlier work
phospholipid in plasma = assay: Phospholipid in plasma of rabbits fed high fat feed; format: in vivo, male white Japanese rabbits; conditions: for Phospholipid concentration in plasma: ± standard error; for Phospholipid concentration, effect in words: vs High fat feed + Vehicle, up to 9 weeks
Experimental: as §1, §2

[4] = test system: cholesterol amount in aortas; assay: Cholesterol amount in the aorta of rabbits fed high fat feed (atherosclerosis); format: in vivo, male white Japanese rabbits; conditions: 9 weeks; for Cholesterol amount in aortas: high fat feed, oral once a day: maleate of Compound A 30, diltiazem 50, prazosin 3 mg/kg/day; for Cholesterol amount in the aorta, effect in words: vs High fat feed + Vehicle
Experimental: as §1, §2
(§3) Nine weeks after the beginning of administration, each rabbit was killed with bleeding under pentobarbital-anesthesia, and the aorta was taken out. The cholesterol amount in the aorta was determined, and the lipid deposition at the aortic inner wall was stained and the area of the stained parts was measured.

[5] = test system: lipid deposition at aortic inner wall; assay: Area of lipid deposition at aortic inner wall of rabbits fed high fat feed (atherosclerosis); format: in vivo, male white Japanese rabbits; conditions: 9 weeks; for Area of lipid deposition at aortic inner wall: high fat feed, percentage of whole area of aortic inner wall, oral once a day: maleate of Compound A 30, diltiazem 50, prazosin 3 mg/kg/day; for Area of lipid deposition at the aortic inner wall, effect in words: vs High fat feed + Vehicle
Experimental: as §1, §2, §3

atherosclerosis = conditions: cited from earlier work
[6] = Hypotensive activity at the dosages of the experiment; format: in vivo; conditions: at 30 (maleate of Compound A), 50 (diltiazem), 3 (prazosin) mg/kg/day, oral
[7] = Acute toxicity (LD50), oral, mice; conditions: mouse, in vivo
rats = conditions: rat, in vivo
beagles = conditions: dog, in vivo
blood lipid = conditions: cited from earlier work
[8] = week 0, high fat feed, before treatment
[9] = week 6, high fat feed, oral once a day: maleate of Compound A 30, diltiazem 50, prazosin 3 mg/kg/day
[10] = week 8, high fat feed, oral once a day: maleate of Compound A 30, diltiazem 50, prazosin 3 mg/kg/day
[11] = week 9, high fat feed, oral once a day: maleate of Compound A 30, diltiazem 50, prazosin 3 mg/kg/day

Row | SMILES | Total cholesterol concentration in plasma [1, 8] [mg/dL] | Total cholesterol concentration in plasma [1, 9] [mg/dL] | Total cholesterol concentration in plasma [1, 10] [mg/dL] | Total cholesterol concentration in plasma [1, 11] [mg/dL] | Free cholesterol concentration in plasma [2, 8] [mg/dL] | Free cholesterol concentration in plasma [2, 9] [mg/dL] | Free cholesterol concentration in plasma [2, 10] [mg/dL] | Free cholesterol concentration in plasma [2, 11] [mg/dL] | Phospholipid concentration in plasma (phospholipid in plasma; [8]) [mg/dL] | Phospholipid concentration in plasma (phospholipid in plasma; [9]) [mg/dL] | Phospholipid concentration in plasma (phospholipid in plasma; [10]) [mg/dL] | Phospholipid concentration in plasma (phospholipid in plasma; [11]) [mg/dL] | Cholesterol amount in aortas [4] | Area of lipid deposition at aortic inner wall [5] [%] | Total cholesterol concentration, effect in words [1] | Free cholesterol concentration, effect in words [2] | Phospholipid concentration, effect in words (phospholipid in plasma) | Cholesterol amount in the aorta, effect in words [4] | Area of lipid deposition at the aortic inner wall, effect in words [5] | hypotensive activity [6] | further results
1 | O=C(CCCN1CCN(c2ccc(F)cc2)CC1)NC1c2ccccc2CSc2ccccc21 (stereo not shown) [Compound A] | 1161 ± 110 | 1595 ± 136 | 1074 ± 162 | 1070 | 346 ± 34 | 503 ± 43 | 330 ± 56 | 306 | 452 ± 42 | 678 ± 70 | 529 ± 66 | 489 | 234.4 ± 39.4 mg/kg of protein | 35.2 | – | – | – | – | – | – | α1-receptor blocking activity (α1-receptor): have α1 -receptor blocking activity; calcium antagonistic activity [3]: potent calcium antagonistic activity
2 | COc1ccc([C@@H]2Sc3ccccc3N(CCN(C)C)C(=O)[C@@H]2OC(C)=O)cc1 [diltiazem] | 1127 ± 202 | 2297 ± 127 | 2106 ± 293 | 1626 | 318 ± 57 | 660 ± 42 | 673 ± 96 | 486 | 454 ± 72 | 931 ± 50 | 825 ± 116 | 718 | 509.3 ± 240.1 mg/kg of protein | 45.2 | no decrease | no decrease | no decrease | not decreased at all | not decreased at all | show hypotensive activity | atherosclerosis inhibitory activity (atherosclerosis; Atherosclerosis, 51, 343-344 (1984)): no inhibitory activity; atherosclerosis inhibitory activity (atherosclerosis; rabbits, Lab. Invest. 49, 154-158 (1983)): shows the atherosclerosis inhibitory activity
3 | O=C(CCCN1CCN(c2ccc(F)cc2)CC1)NC1c2ccccc2CSc2ccccc21 (stereo not shown) [maleate of Compound A] | – | – | – | – | – | – | – | – | – | – | – | – | – | – | significantly decreased from 8 weeks after the beginning of administration | significantly decreased from 6 weeks after the beginning of the administration | significantly decreased from 6 weeks after the beginning of the administration | significantly decreased | also decreased | show hypotensive activity | LD50 [7]: > 500 mg/kg; toxicity by prolonged administration (rats): no significant toxicity was observed; toxicity by prolonged administration (beagles): no significant toxicity was observed
4 | COc1cc2nc(N3CCN(C(=O)c4ccco4)CC3)nc(N)c2cc1OC [prazosin] | 1201 ± 45 | 3048 ± 236 | 2082 ± 194 | 1999 | 368 ± 22 | 916 ± 69 | 740 ± 96 | 584 | 474 ± 22 | 1240 ± 94 | 937 ± 112 | 803 | 372.8 ± 63.9 mg/kg of protein | 56.7 | no decrease | no decrease | no decrease | not decreased at all | not decreased at all | show hypotensive activity | α1-receptor blocking activity (α1-receptor): having α1 -receptor blocking activity; blood lipid decreasing activity (blood lipid; Prog. Medicine 3, 1517-1525 (1983)): no blood lipid decreasing activity; blood lipid decreasing activity (blood lipid; human being, Am. J. Medicine, 76 (suppl. 2A), 79-84 (1984)): shows blood lipid decreasing activity
